Experimental data as given in patent publication US20250235543A1, “MODIFIED PROTEINS AND PROTEIN DEGRADERS” (Cullgen (Shanghai), Inc., priority 2021, published 2025).
Where two headings read alike, the source gives them in different places.

Columns and labels:
cyclin D1 = test: Cyclin D1 percentage degradation in Calu-1 cells (immunoblotting); assay type: cell-based; details: 200 nM, 16 hours
Procedure: (§1) […] A: protein percentage degradation >=80%; B: protein percentage degradation <80%, and >=50%; C: protein percentage degradation <50%, and >=30%; D: protein percentage degradation <30%.
(§2) Cultured cells were washed with cold PBS once and lysed in cold RIPA buffer supplemented with protease inhibitors and phosphatase inhibitors (Beyotime Biotechnology). The solutions were then incubated at 4° C. for 30 min with gentle agitation to fully lysed cells. Cell lysates were centrifuged at 13,000 rpm for 10 min at 4° C. and pellets were discarded. Total protein concentrations in the lysates were determined following BCA assays (Beyotime Biotechnology). Cell lysates were mixed with Laemmli loading buffer and heated at 99° C. for 5 min. Proteins were resolved on SDS-PAGE and visualized using Western ECL Substrate kits on a ChemiDoc MP Imaging system (Bio-Rad). Protein bands were quantitated using the Image Lab software provided by Bio-Rad.

CDK4 = molecular target: T1, CDK4 (Homo sapiens, UniProt P11802); test: CDK4 percentage degradation in Calu-1 cells (immunoblotting); assay type: cell-based; details: read-out: CDK4 Degradation (200 nM)
T1 construct: endogenous in cells; host or cells: Calu-1
Procedure: as §1, §2

T1 sequence (P11802 2-303 limits assumed): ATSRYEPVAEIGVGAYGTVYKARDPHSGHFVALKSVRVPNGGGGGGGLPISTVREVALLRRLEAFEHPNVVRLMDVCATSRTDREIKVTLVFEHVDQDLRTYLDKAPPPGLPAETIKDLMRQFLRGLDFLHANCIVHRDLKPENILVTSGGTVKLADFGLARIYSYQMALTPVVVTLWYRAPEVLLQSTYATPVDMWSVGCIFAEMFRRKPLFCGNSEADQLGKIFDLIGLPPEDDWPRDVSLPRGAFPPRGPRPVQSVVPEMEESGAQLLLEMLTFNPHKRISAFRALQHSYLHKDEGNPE
T1 sequence (P24385 whole entry partner): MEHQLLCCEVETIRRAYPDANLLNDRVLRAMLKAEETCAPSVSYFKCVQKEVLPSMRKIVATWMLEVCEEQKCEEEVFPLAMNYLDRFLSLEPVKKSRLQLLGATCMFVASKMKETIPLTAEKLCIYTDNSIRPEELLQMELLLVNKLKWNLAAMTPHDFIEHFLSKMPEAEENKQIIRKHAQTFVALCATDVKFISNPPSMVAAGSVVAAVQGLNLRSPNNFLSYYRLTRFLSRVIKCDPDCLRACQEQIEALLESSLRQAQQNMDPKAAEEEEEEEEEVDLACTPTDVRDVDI
T1 sequence (Q16531 2-1140 limits assumed, further chain): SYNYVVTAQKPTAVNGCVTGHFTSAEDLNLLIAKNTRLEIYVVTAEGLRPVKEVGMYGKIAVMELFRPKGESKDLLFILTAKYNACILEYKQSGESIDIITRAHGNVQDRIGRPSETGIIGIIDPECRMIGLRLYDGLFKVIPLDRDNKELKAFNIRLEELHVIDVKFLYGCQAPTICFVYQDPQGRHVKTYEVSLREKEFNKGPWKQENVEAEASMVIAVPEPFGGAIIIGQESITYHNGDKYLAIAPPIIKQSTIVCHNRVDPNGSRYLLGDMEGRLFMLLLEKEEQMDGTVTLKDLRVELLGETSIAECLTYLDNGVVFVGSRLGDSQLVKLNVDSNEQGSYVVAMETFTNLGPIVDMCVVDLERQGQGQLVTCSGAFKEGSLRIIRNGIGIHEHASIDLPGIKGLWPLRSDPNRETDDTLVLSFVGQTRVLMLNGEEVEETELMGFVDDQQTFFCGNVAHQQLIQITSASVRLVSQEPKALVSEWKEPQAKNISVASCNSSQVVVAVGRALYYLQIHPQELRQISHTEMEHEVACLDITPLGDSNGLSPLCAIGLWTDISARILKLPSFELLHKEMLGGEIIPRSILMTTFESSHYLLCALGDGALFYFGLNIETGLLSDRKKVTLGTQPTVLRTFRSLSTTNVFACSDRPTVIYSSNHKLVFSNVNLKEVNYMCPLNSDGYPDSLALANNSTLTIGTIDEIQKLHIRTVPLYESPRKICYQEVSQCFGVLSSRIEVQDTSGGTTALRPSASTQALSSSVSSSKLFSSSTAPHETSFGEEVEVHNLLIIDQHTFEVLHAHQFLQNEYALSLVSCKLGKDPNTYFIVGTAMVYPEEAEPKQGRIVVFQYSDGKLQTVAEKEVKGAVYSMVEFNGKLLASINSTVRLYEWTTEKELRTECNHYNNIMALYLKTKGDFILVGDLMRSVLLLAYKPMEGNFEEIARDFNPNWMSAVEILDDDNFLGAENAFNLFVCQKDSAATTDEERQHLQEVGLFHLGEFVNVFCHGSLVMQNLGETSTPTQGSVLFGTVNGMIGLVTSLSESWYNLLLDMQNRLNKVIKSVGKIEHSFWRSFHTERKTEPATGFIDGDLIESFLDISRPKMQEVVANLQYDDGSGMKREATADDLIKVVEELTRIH

Compound	CyclinD1 Degradation (200 nM) (cyclin D1)	inhibition at 0.2 µM (CDK4; Calu-1 cells, 200 nM, 16 hours) [%]	inhibition at 0.2 µM (CDK4; Calu-1, 16 h) [%]
CC(=O)c1c(C)c2cnc(Nc3ccc(N4CCN(CC(=O)NC(C)CCCCNc5cc(Cl)ccc5C(=O)Nc5ccc(C)c(C6CC6)n5)CC4)cn3)nc2n(C2CCCC2)c1=O (centres unmarked) [CPD-379, 2-((5-(2-(4-(6-((6-Acetyl-8-cyclopentyl-5-methyl-7-oxo-7,8-dihydropyrido[2,3-d]pyrimidin-2-yl)amino)pyridin-3-yl)piperazin-1-yl)acetamido)hexyl)amino)-4-chloro-N-(6-cyclopropyl-5-methylpyridin-2-yl)benzamide]	A (protein percentage degradation >=80%)	50 to 80	
CC(=O)c1c(C)c2cnc(Nc3ccc(N4CCN(C(=O)CCOCCOCCNc5ccc(C)c(C(=O)Nc6nc(C)c(C)s6)c5)CC4)cn3)nc2n(C2CCCC2)c1=O [CPD-130, 5-((2-(2-(3-(4-(6-((6-Acetyl-8-cyclopentyl-5-methyl-7-oxo-7,8-dihydropyrido[2,3-d]pyrimidin-2-yl)amino)pyridin-3-yl)piperazin-1-yl)-3-oxopropoxy)ethoxy)ethyl)amino)-N-(4,5-dimethylthiazol-2-yl)-2-methylbenzamide]	D (protein percentage degradation <30%)		< 30
CC(=O)c1c(C)c2cnc(Nc3ccc(N4CCN(CC(=O)NCCOCCOCCCNc5ccccc5C(=O)Nc5nc(C)c(C)s5)CC4)cn3)nc2n(C2CCCC2)c1=O [CPD-267, 2-((3-(2-(2-(2-(4-(6-((6-Acetyl-8-cyclopentyl-5-methyl-7-oxo-7,8-dihydropyrido[2,3-d]pyrimidin-2-yl)amino)pyridin-3-yl)piperazin-1-yl)acetamido)ethoxy)ethoxy)propyl)amino)-N-(4,5-dimethylthiazol-2-yl)benzamide]	A (protein percentage degradation >=80%)	50 to 80	
CC(=O)c1c(C)c2cnc(Nc3ccc(N4CCN(CCCCCCCC(=O)Nc5ccccc5C(=O)Nc5ccc(C)cn5)CC4)cn3)nc2n(C2CCCC2)c1=O [CPD-183, 2-(8-(4-(6-((6-Acetyl-8-cyclopentyl-5-methyl-7-oxo-7,8-dihydropyrido[2,3-d]pyrimidin-2-yl)amino)pyridin-3-yl)piperazin-1-yl)octanamido)-N-(5-methylpyridin-2-yl)benzamide]	D (protein percentage degradation <30%)		< 30
CNc1ccc(C(=O)Nc2ccc(C)c(C3CC3)n2)c(NCCCCCNC(=O)CN2CCN(c3ccc(Nc4ncc5c(C)c(C(C)=O)c(=O)n(C6CCCC6)c5n4)nc3)CC2)c1 [CPD-371, 2-((5-(2-(4-(6-((6-Acetyl-8-cyclopentyl-5-methyl-7-oxo-7,8-dihydropyrido[2,3-d]pyrimidin-2-yl)amino)pyridin-3-yl)piperazin-1-yl)acetamido)pentyl)amino)-N-(6-cyclopropyl-5-methylpyridin-2-yl)-4-(methylamino)benzamide]	A (protein percentage degradation >=80%)	50 to 80	
CC(=O)c1c(C)c2cnc(Nc3ccc(N4CCN(CC(=O)NCCOCCOCCC(=O)Nc5ccccc5C(=O)Nc5ncc(C)s5)CC4)cn3)nc2n(C2CCCC2)c1=O [CPD-051, 2-(3-(2-(2-(2-(4-(6-((6-Acetyl-8-cyclopentyl-5-methyl-7-oxo-7,8-dihydropyrido[2,3-d]pyrimidin-2-yl)amino)pyridin-3-yl)piperazin-1-yl)acetamido)ethoxy)ethoxy)propanamido)-N-(5-methylthiazol-2-yl)benzamide]	A (protein percentage degradation >=80%)	> 80	
CC(=O)c1c(C)c2cnc(Nc3ccc(N4CCN(CC(=O)NCCOCCOCCOCCOCCOCCNc5cccc(C(=O)Nc6nc(C)c(C)s6)c5C)CC4)cn3)nc2n(C2CCCC2)c1=O [CPD-107, 3-((1-(4-(6-((6-Acetyl-8-cyclopentyl-5-methyl-7-oxo-7,8-dihydropyrido[2,3-d]pyrimidin-2-yl)amino)pyridin-3-yl)piperazin-1-yl)-2-oxo-6,9,12,15,18-pentaoxa-3-azaicosan-20-yl)amino)-N-(4,5-dimethylthiazol-2-yl)-2-methylbenzamide]	A (protein percentage degradation >=80%)	> 80	
